What all share (type): cell-based
In test [1] the test system is KRAS G12D mutant human gastric cancer cell AGS. The experiment in a line: 3D cell proliferation inhibition assay, AGS. To be noted: 168 h, 7 days, CTG, numeric values. Put shortly: (§1)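 3D growth, low-adsorption plate; 5×10^2 cells/well; cpd 10000–0.026 nM final, 0.2% DMSO; 7 d, 37 °C/5% CO2. CTG luminescence, 60 min RT. % inhibition vs DMSO (cells) and medium blanks; IC50 by nonlinear fit.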

In test [2] the test system is KRAS G12D mutant human metastatic pancreatic cancer cell AsPc-1. As to the kind of experiment: 3D cell proliferation inhibition assay, AsPc-1. As to conditions: ASPC1, 168 h, AsPc-1, 7 days, CTG, numeric values. The essentials:
as §1

Test [3] deals with T1, KRAS-G12D (Homo sapiens, UniProt P01116, G12D).
T1 construct: endogenous in cells; host or cells: A-427 (ATCC), AGS, AsPc-1, Panc 04.03
T1 sequence (P01116 1-188 isoform P01116-2 G12D): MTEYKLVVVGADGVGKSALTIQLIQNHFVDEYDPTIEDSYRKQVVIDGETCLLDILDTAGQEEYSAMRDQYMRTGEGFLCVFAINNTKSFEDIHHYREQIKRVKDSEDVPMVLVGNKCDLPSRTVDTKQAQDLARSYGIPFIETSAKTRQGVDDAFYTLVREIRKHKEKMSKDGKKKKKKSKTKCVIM
The experiment in a line: KRAS-G12D degradation assay (Western Blot), AsPc-1 cells. As to conditions: for DC50: 24 h; for Dmax: ASPC1, 24 h. As to the method: The degradation effects of the compounds on KRAS-G12D were investigated on KRAS G12D mutant human lung cancer cell A-427 (ATCC), KRAS G12D mutant human gastric cancer cell AGS, KRAS G12D mutant human metastatic pancreatic cancer cell AsPc-1, and KRAS G12D mutant human pancreatic adenocarcinoma cell Panc 04.03. The specific procedures were as follows: 0.95 mL of cells were seeded into each well of a 24-well cell culture plate to achieve a cell density of 5×10^5 cells/well; and the cell plate was incubated in an incubator at 37° C. with 5% CO2 overnight. Then 50 μL of the compound solution after dilution was added to each of the wells with the corresponding cells, so that the final concentration of the compound was in a range of 0.03-3000 nM. The final concentration of DMSO was 0.25%. After the compounds were added, the cell plate was incubated in the incubator at 37° C. with 5% CO2 for 24 h. The culture medium in the 24-well cell culture plate was removed, and the plate was washed twice with 1×PBS (KeyGEN). 120 μL of RIPA (strong) lysis buffer (Beyotime) supplemented with 1 mM phenylmethylsulfonyl fluoride, a protease inhibitor mixture (Beyotime), and a protease phosphatase inhibitor mixture (Beyotime) was added to lyse adherent A-427 cells at the bottom of the cell culture plate. After the plate was left to stand on ice for 30 min, the protein lysate in each well was transferred to a 1.5 mL centrifuge tube and centrifuged at 15000 g for 20 min at 4° C. The cell lysate supernatants after centrifugation were cryopreserved in a refrigerator at −80° C. for later use.
After the samples of the cell lysate supernatants that had been prepared were thawed from the refrigerator at −80° C., the total protein concentrations of the cell lysates were determined using a BCA protein quantification kit (Tiangen). The total protein concentrations of the samples were then adjusted to 0.5 μg/μL with PBS and 5×SDS-PAGE protein loading buffer (Beyotime), and the samples were incubated in a water bath at 100° C. for 15 min. The samples were then incubated in an ice bath for 5 min and centrifuged at 14000 g for 1 min at 4° C., and the supernatants were mixed well as loading samples for the Western Blot assay. The samples were loaded into wells of a 10% precast gel (KeyGEN) with a loading volume of 10 μL (total protein: 5 μg), a sufficient Tris-MOPS-SDS running buffer (Adamas) was added, and then electrophoresis was performed at a constant voltage of 120 V for 55 min. After the electrophoresis, the proteins on the gel were transferred to PVDF membranes at a constant current of 250 mA for 55 min. After the membrane transfer, the PVDF membranes were incubated in 1× Quick Block blocking buffer (Beyotime) at room temperature for 30 min. After the blocking, the PVDF membranes were separately incubated at 4° C. overnight with the KRAS antibody (Abcam) diluted in a ratio of 1:1000 and the […] antibody (Abcam) diluted in a ratio of 1:2000 in 5% BSA as the diluent, and then washed with 1×TBST buffer (2.4 g of Tris, 8.8 g of NaCl, 1.5 mL of Tween 20, with pH adjusted to 7.4, with the volume brought to 1 L) 3 times for 10 min/time. The membranes were incubated with a secondary antibody (Abcam) diluted in 5% BSA at room temperature for 2 h, and then washed with 1×TBST buffer 3 times for 10 min/time. Finally, the membranes were incubated with Clarity Western ECL Substrate (BIO-RAD) for 5 min for luminescence and color development, and a ChemiScope 6200 Touch chemiluminescence imaging system (Clinx) was used for color development and protein mapping. Gray value analysis of the protein maps was performed using the chemiluminescence analysis software (Clinx). The gray correction value for each sample was calculated using the formula: gray correction value=(gray value of target protein/gray value of corresponding internal reference)×10^3. Then degradation rates were calculated by comparison with the gray correction value of the control group. […]
(Immunoblotting shows a protein as a band on a membrane.)

In test [4] the test system is KRAS G12D mutant human pancreatic cancer cell Panc 04.03. The experiment in a line: 3D cell proliferation inhibition assay, Panc 04.03. To be noted: 168 h, Panc 04.03, 7 days, CTG, numeric values. The source says: The inhibitory effects of the compounds on 3D cell proliferation were investigated on KRAS G12D mutant human lung cancer cell A427, KRAS G12D mutant human gastric cancer cell AGS, KRAS G12D mutant human metastatic pancreatic cancer cell AsPc-1, KRAS G12D mutant human pancreatic cancer cell Panc 04.03, KRAS G12D mutant human pancreatic cancer cell HPAC, KRAS G12V mutant human lung squamous cell carcinoma cell SW900, and KRAS WT human gastric cancer cell MKN1. The specific procedures were as follows:
10 μL of each compound solution diluted in a gradient was added to corresponding wells of a 96-well low-adsorption microplate (PerkinElmer), so that the final concentrations of the test compounds in the reaction system were in a range of 10000-0.026 nM. The final concentration of DMSO was 0.2%. Then 90 µL of cells were correspondingly seeded into each well to achieve a cell density of 5×10^2 cells/well (the cell density of SW900 was 5×10^1 cells/well, and the cell density of MKN1 was 1×10^3 cells/well). In addition to test wells for the test compounds, both a DMSO control well and a medium control well were set, with the DMSO control well containing DMSO and cells and the medium well containing only a medium. After the sample loading, the 96-well low-adsorption microplate was incubated in an incubator at 37° C. with 5% carbon dioxide for 7 days. After 7 days, the microplate was taken out, and 100 μL of CTG reagent (Promega) was added to each well. The plate was incubated at room temperature for 60 min and read on a microplate reader EnVision by the chemiluminescence program. The inhibition rates of the compounds at each concentration were calculated using the formula for the percentage inhibition of cell proliferation: inhibition rate %=(mean value of DMSO control group−single concentration reading value of compound)/(mean value of DMSO control group−mean value of medium control group)×100. Then non-linear curve fittings for logarithmic concentration-inhibition rate were performed by GraphPad Prism 8, and the IC50 values of the compounds were obtained (Table 5).

Test [5] relates to KRAS G12D mutant human pancreatic cancer cell HPAC. The experiment in a line: 3D cell proliferation inhibition assay, HPAC. As to conditions: 168 h, 7 days, CTG. The essentials:
as §1

Molecules are shown by their SMILES.

Among the data in patent US20260166159A1, “KRAS G12D DEGRADATION AGENT, AND PREPARATION METHOD AND USE THEREFOR” (LEADINGTAC PHARMACEUTICAL (SHAOXING) CO., LTD., priority 2022, published 2026) are IC50, DC50 and Dmax values, retold here.

What is called IC50 is the concentration that inhibits the measured activity by half. A lower IC50 goes with greater potency in that assay. By DC50 is commonly meant the midpoint of the concentration-degradation curve. The Dmax is the largest share of the target that was removed. Higher therefore signals a fuller loss of target.

On to `C#Cc1c(F)ccc2cc(O)cc(-c3ncc4c(N5CC6CCC(C5)N6)nc(OC[C@H](C)CN5CCN(CC6CCC7(CC6)CCN(C(=O)c6cc(N8CCC(=O)NC8=O)c(C)cc6F)CC7)CC5)nc4c3F)c12` [Example 173, 1-(5-(9-((4-((R)-3-((4-(3,8-diazabicyclo[3.2.1]octan-3-yl)-7-(8-ethynyl-7-fluoro-3-hydroxynaphthalen-1-yl)-8-fluoropyrido[4,3-d]pyrimidin-2-yl)oxy)-2-methylpropyl)piperazin-1-yl)methyl)-3-azaspiro[5.5]undecane-3-carbonyl)-4-fluoro-2-methylphenyl)dihydropyrimidine-2,4(1H,3H)-dione], for which the IC50 in test [1] amounted to 4.22 nM; in test [2], 1.51 nM; in test [4] it was 5.88 nM; in test [5], 3.8 nM. The compound further displayed a DC50 in test [3] of 2.42 nM. In test [3], this compound gave a Dmax of 99%.

On to `C#Cc1c(F)ccc2cc(O)cc(-c3ccc4c(N5CC6CCC(C5)N6)nc(OC[C@H](C)CN5CCN(CC6CCC7(CC6)CCN(C(=O)c6ccc(C)c(N8CCC(=O)NC8=O)c6)CC7)CC5)nc4c3F)c12` [Example 251, 1-(5-(9-((4-((R)-3-((4-(3,8-diazabicyclo[3.2.1]octan-3-yl)-7-(8-ethynyl-7-fluoro-3-hydroxynaphthalen-1-yl)-8-fluoroquinazolin-2-yl)oxy)-2-methylpropyl)piperazin-1-yl)methyl)-3-azaspiro[5.5]undecane-3-carbonyl)-2-methylphenyl)dihydropyrimidine-2,4(1H,3H)-dione], for which the IC50 worked out at 14.3 nM in test [2], 22.4 nM in test [4] and 40.2 nM in test [5]. The same compound came in with a DC50 in test [3] of 8.72 nM. In test [3], the Dmax worked out at 99.1%.

For `C#Cc1c(F)ccc2cc(O)cc(-c3ncc4c(N5CC6CCC(C5)N6)nc(OC[C@H](C)CN5CCN(CC6CCC7(CC6)CCN(C(=O)c6ccc(C)c(N8CCC(=O)NC8=O)c6)CC7)CC5)nc4c3F)c12` [Example 100, 1-(5-(9-((4-((R)-3-((4-(3,8-diazabicyclo[3.2.1]octan-3-yl)-7-(8-ethynyl-7-fluoro-3-hydroxynaphthalen-1-yl)-8-fluoropyrido[4,3-d]pyrimidin-2-yl)oxy)-2-methylpropyl)piperazin-1-yl)methyl)-3-azaspiro[5.5]undecane-3-carbonyl)-2-methylphenyl)dihydropyrimidine-2,4(1H,3H)-dione], the IC50 in test [1] worked out at 3.63 nM; in test [2], 2.02 nM; in test [4], 23.8 nM; in test [5], 2.43 nM. Also, in test [3], it took 2.54 nM to reach half-maximal degradation (DC50). In test [3], this compound yielded a Dmax of 100%.

As for `C#Cc1c(F)ccc2cc(O)cc(-c3ncc4c(N5CC6CCC(C5)N6)nc(OC[C@H](C)CN5CCN(CC6CCC7(CC6)CCN(C(=O)c6ccc(CC)c(N8CCC(=O)NC8=O)c6)CC7)CC5)nc4c3F)c12` [Example 110, 1-(5-(9-((4-((R)-3-((4-(3,8-diazabicyclo[3.2.1]octan-3-yl)-7-(8-ethynyl-7-fluoro-3-hydroxynaphthalen-1-yl)-8-fluoropyrido[4,3-d]pyrimidin-2-yl)oxy)-2-methylpropyl)piperazin-1-yl)methyl)-3-azaspiro[5.5]undecane-3-carbonyl)-2-ethylphenyl)dihydropyrimidine-2,4(1H,3H)-dione], the IC50 in test [1] was determined as 5.69 nM; in test [2] it was 4.47 nM; in test [4], 12.5 nM; in test [5], 18.6 nM. The compound further registered a DC50 in test [3] of 2.56 nM. Further, the Dmax in test [3] stood at 99.2%.
